Experimental data as given in ChEMBL document CHEMBL1135688, “Pharmacophore model of drugs involved in P-glycoprotein multidrug resistance: explanation of structural variety (hypothesis)” (J Med Chem, 2002).

Target: T1, ATP-dependent translocase ABCB1 (Homo sapiens, UniProt P08183)
Assay: High affinity constant at binding site of human P-Glycoprotein (P-gp) in two-affinity model

T1 sequence (P08183 whole entry): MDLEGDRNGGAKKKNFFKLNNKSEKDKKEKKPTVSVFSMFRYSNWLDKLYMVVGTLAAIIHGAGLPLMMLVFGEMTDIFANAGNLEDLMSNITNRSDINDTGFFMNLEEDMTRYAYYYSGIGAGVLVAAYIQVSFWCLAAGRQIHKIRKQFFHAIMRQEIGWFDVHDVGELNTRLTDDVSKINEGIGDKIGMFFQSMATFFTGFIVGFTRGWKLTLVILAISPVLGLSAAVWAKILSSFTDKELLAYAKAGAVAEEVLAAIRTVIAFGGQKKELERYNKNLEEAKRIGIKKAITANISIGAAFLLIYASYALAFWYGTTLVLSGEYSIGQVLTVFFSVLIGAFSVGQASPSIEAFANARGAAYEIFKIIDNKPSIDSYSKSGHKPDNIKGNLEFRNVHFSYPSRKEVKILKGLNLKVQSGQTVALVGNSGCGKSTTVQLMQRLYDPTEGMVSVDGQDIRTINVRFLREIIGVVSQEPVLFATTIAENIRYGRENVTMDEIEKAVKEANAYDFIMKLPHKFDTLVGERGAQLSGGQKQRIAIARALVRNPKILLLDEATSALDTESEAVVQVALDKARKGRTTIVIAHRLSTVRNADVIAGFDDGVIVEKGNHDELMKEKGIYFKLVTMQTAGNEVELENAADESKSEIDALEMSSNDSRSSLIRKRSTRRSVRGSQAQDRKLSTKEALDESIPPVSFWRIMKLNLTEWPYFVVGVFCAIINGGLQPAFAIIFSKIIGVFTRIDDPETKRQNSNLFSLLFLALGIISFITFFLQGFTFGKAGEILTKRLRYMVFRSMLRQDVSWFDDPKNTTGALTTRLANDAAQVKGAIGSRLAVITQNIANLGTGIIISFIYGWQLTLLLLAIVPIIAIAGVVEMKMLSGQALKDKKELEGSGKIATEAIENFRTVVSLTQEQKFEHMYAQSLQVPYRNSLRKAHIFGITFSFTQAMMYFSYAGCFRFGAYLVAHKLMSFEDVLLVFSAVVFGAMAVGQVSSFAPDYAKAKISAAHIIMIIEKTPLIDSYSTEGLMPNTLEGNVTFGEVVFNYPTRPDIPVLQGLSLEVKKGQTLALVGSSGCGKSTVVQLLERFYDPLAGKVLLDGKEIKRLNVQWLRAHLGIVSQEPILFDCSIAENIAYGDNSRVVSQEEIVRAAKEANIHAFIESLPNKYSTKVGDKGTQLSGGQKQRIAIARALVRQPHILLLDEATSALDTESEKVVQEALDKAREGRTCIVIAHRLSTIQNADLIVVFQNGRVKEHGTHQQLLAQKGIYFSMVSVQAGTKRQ

SMILES | Ki [µM]
COC(=O)c1ccccc1-c1c2ccc(=N)cc-2oc2cc(N)ccc12 | 0.1

Target: T1, ATP-dependent translocase ABCB1
Assay: Fraction of high affinity at binding site of human P-Glycoprotein (P-gp) in two-affinity model

SMILES | Binding site fraction
COC(=O)c1ccccc1-c1c2ccc(=N)cc-2oc2cc(N)ccc12 | 0.7
CN(C)CCCN1c2ccccc2Sc2ccc(Cl)cc21 [CHLORPROMAZINE] | 0.8
O=C(CCCN1CCC(O)(c2ccc(Cl)cc2)CC1)c1ccc(F)cc1 [HALOPERIDOL] | 0.3
COCCc1ccc(OCC(O)CNC(C)C)cc1 (stereo not given) [METOPROLOL] | 0.2
CC(C)NCC(O)COc1ccc(CCNC(=O)NC(C)C)cc1 (stereo not given) [PAFENOLOL] | 0.2
CC(C)NCC(O)COc1cccc2ccccc12 (stereo not given) [PROPRANOLOL] | 0.5
C=C[C@H]1C[N@@]2CC[C@H]1C[C@@H]2[C@@H](O)c1ccnc2ccc(OC)cc12 [QUINIDINE] | 0.2
C=C[C@H]1C[N@@]2CC[C@H]1C[C@H]2[C@H](O)c1ccnc2ccc(OC)cc12 [QUININE] | 0.2
CC[C@]1(O)C[C@@H]2CN(CCc3c([nH]c4ccccc34)[C@@](C(=O)OC)(c3cc4c(cc3OC)N(C)[C@H]3[C@@](O)(C(=O)OC)[C@H](OC(C)=O)[C@]5(CC)C=CCN6CC[C@]43[C@@H]65)C2)C1 [VINBLASTINE] | 0.4

Target: T1, ATP-dependent translocase ABCB1
Assay: Concentration required for 50% inhibition at binding site of human P-Glycoprotein (P-gp) in one-affinity model

SMILES | IC50 [µM]
COC(=O)c1ccccc1-c1c2ccc(=N)cc-2oc2cc(N)ccc12 | 0.5
COc1ccc(CCNCCCC(C#N)(c2ccc(OC)c(OC)c2)C(C)C)cc1OC (racemic) [NORVERAPAMIL] | 4.24
COc1ccc2[nH]c([S+]([O-])Cc3ncc(C)c(OC)c3C)nc2c1 (stereo in doubt; form 1) [OMEPRAZOLE] | 89
COc1ccc2[nH]c([S+]([O-])Cc3ncc(C)c(OC)c3C)nc2c1 (stereo in doubt; form 2) [OMEPRAZOLE] | 97.2
COc1ccc2[nH]c([S+]([O-])Cc3ncc(C)c(OC)c3C)nc2c1 (stereo in doubt; form 3) [OMEPRAZOLE] | 91.2
